Test results published in patent US11897898B2, “Pyridine macrocycle compounds as ASK1 inhibiting agents” (BIOGEN MA INC., priority 2018, dated 2024).
pIC50: −log10 of the molar value.

Key:
[1] = target: T1, ASK1 T838 auto phosphorylation (Homo sapiens, UniProt Q99683); experiment: ASK1 (AUTO PHOS T838) assay in HEK-293T cells, MSD format; type: cell-based; settings: HEK-293T cells transfected with ASK1-V5, 1 hr compound incubation; class symbols
T1 construct: ASK1-V5 tagged full length plasmid; expressed in transfected cells; host or cells: HEK-293T
T1 sequence (Q99683 1-1374): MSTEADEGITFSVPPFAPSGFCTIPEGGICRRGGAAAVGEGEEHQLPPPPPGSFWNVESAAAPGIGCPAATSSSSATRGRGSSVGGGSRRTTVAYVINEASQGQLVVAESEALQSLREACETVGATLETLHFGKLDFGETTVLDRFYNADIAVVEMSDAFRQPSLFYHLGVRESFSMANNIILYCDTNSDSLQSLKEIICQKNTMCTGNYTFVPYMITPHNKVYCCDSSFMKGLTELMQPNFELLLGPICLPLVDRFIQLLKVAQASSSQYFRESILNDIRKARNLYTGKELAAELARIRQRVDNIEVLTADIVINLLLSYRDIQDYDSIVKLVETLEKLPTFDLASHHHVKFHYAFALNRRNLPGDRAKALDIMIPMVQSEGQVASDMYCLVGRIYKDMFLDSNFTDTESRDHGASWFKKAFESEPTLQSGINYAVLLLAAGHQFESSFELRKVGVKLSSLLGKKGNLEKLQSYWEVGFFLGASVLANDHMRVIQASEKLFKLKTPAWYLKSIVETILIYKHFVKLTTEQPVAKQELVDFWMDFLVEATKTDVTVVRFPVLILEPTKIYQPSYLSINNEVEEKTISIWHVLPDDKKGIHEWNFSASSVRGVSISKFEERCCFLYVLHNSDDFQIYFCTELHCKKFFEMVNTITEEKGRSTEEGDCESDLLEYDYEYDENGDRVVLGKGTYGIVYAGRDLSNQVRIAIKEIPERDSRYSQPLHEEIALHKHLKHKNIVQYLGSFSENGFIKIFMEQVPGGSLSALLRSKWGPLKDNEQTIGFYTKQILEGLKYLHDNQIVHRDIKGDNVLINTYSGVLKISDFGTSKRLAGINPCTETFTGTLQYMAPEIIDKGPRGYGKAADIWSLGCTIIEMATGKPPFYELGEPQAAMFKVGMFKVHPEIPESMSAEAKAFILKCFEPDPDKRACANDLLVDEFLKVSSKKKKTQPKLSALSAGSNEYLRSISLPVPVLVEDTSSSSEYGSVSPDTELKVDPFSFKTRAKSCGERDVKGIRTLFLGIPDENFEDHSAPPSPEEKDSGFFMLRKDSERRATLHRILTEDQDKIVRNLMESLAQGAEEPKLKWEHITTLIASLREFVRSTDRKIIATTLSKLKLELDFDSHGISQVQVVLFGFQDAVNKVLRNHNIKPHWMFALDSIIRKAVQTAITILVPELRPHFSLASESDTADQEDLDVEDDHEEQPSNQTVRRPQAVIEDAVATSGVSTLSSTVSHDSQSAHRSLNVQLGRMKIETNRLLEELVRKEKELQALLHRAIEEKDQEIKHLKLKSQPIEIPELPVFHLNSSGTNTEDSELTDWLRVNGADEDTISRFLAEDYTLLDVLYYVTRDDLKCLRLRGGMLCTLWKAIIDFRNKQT
Protocol: ASK1 T838 auto phosphorylation was measured in HEK-293T cells using MSD assay format. HEK 293T cells were seeded in 15 cm plates at a density of 18 million cells and 20 mL DMEM with 10% FBS, Pen/Strep media. The plates were incubated at 37° C. overnight. Media on plates was changed to OPTI-MEM, serum free media and cells were transfected with 9 μg of ASK1-V5 tagged full length plasmid using Lipofectamine 2000 (Invitrogen) and the plates were incubated at 37° C. overnight. Cells were trypsinized, counted on Nexcellometer and plated into 96 well tissue culture plates with 100,000 cells/well and 200 μL media. Cells were incubated for 4 hr at 37° C. then ASK1 compounds were added using a HP 300e. Compounds were tested at 20 μM with 3 fold, 10 point dilution points then incubated for 1 hr at 37° C. A lysis buffer (Cell Signaling) was prepared with protease and phosphatase inhibitor and maintained at 4° C. until use. Media from cells was discarded and 120 μL of cold lysis buffer was added to the cells, the plate was shaken 4° C. for 1 hr. Lysate was mixed using Apricot liquid handler; aspirating up and down 16 times at high speed using 50 μL volume. 50 μL of cell lysates were transferred to a pre-coated MSD plates containing mouse anti-V5 antibody (1:500 dilution) and washed 3× with MSD wash buffer (TBST) and blocked with a 3% BSA solution. Plates were then incubated on a plate shaker overnight at 4° C. Plates were washed 3× with MSD wash buffer and 50 μL of rabbit anti-pASK1 T838 antibody was added to the wells and incubated for 2 hr at room temperature on a plate shaker. Plates were then washed and 50 μL of goat anti-rabbit sulfa-tag (1:500 dilution) was added to wells, and incubated for 1 hr at room temperature on a plate shaker. Plates were washed 3× and 150 μL of 2×MSD Read buffer was added to wells. Plates were immediately read on a MSD Instrument Reader where chemoluminecense signal was measured. Data was analyzed using Graph Pad or Genedata, the data was normalized and plotted, % activity versus log of compound concentration. The IC50 values were obtained from a 4 parameter fit.

[2] = In vivo brain penetration (rat Kpuu study); settings: brain and plasma (unbound), IV infusion in the carotid artery for four hours, 1 mg/kg, steady state, Kpuu=Cu,b/Cu,p
Protocol: To evaluate the CNS penetration of the compounds described herein, several compounds were selected for in vivo rat Kpuu studies. In these experiments the compounds are administered via an IV infusion (using N,N-dimethylacetamide:ethanol:1,2-propylene glycol:water in a 1:1:3:5 ratio as the vehicle) in the carotid artery for a period of four hours (1 mg/kg, 0.1 mg/mL) to reach steady state. After this time the plasma and brain concentration levels are quantified, and the values are adjusted by the measured protein binding in plasma and brain homogenate to calculate the Kpuu (see Di, L.; Kerns, E. H. Blood-Brain Barrier in Drug Discovery (Wiley)) according to the equation below. Kpuu=Cu,b/Cu,p • Wherein: • Cu,b=Unbound concentration in brain (C×fu,b). (C=concentration at steady state; fu,b=fraction unbound in brain) • And in which: Cu,p=Unbound concentration in plasma (C×fu,p). (C=concentration at steady state; fu,p=fraction unbound in plasma)
Plasma and brain protein binding values were generated via the Rapid Equilibrium Dialysis method. The compound of interest was incubated in K2EDTA plasma and brain homogenate (homogenized 1:7 (w:v) in 1×PBS) purchased from BioIVT (Westbury, N.Y.), opposite a buffered compartment of 100 mM Potassium phosphate/150 mM Sodium chloride, pH 7.4, at 1 μM for 4 hr and 6 hr respectively. At the conclusion of incubation samples were taken from both matrix and buffered compartments, matrix-matched using blank buffer and matrix, extracted with acetonitrile, diluted with water, and analyzed utilizing an Agilent RapidFire 365 high-throughput LC coupled with MS/MS detection via an AB Sciex 5500. Free fractions (fu) were then calculated by comparing internal standard/analyte peak-area ratios of matrix and buffered compartments. Cross-species brain protein binding was considered to be equivalent for the purposes of calculating free fraction (see Di, L., et al., (2011a) Species Independence in Brain Tissue Binding Using Brain Homogenates, Drug Metab Dispos 39:1270-1277).
Total drug concentration in plasma and brain tissue was measured via well-established bioanalytical extraction (protein precipitation) and detection methods (LC-MS/MS). Brain tissues were homogenized 1:4 (w:v) with 1×PBS in MP Biomedicals Lysing Matrix D tubes via an MP Biomedicals FastPrep-24™ homogenizer and were then extracted alongside plasma samples by matrix-matching with blank K2EDTA plasma (purchased from BioIVT), followed by protein crash/extraction with acetonitrile, supernatant dry down under nitrogen, and reconstitution with an acidified aqueous/organic mixture before being measured against a calibration curve of the compound of interest prepared in plasma, matrix-matched with blank brain homogenate (generated with brains purchased from BioIVT), and similarly extracted. Reconstituted extracts were then analyzed via LC-MS/MS (AB Sciex 5500) utilizing a binary HPLC setup (Shimadzu LC-20ADvp) and reverse-phase chromatography gradient (ACE 3 C18-AR). Peak area ratios and a 1/x^2 regression fit were used to generate sample concentration values that, combined with plasma and brain protein binding values, were used to generate free drug concentration values and partitioning coefficient (Kpuu).

[3] = target: T2, ASK1/MAP3K5 (Homo sapiens, UniProt Q99683); experiment: ASK1 enzyme assay (ASK1/MAP3K5 assay by Reaction Biology Corp., 33P-ATP filter-binding); type: biochemical; settings: 20 μM myelin basic protein and 10 μM ATP; class symbols
T2 construct: purchased Reaction Biology Corp. (Malvern, Pa.)
T2 sequence (Q99683 1-1374): T1 sequence (Q99683 1-1374)
Protocol: The protein kinase inhibitory activity of the compounds described herein were tested using the ASK1/MAP3K5 assay by Reaction Biology Corp. (Malvern, Pa.). The assay procedure follows (and is also available on the Reaction Biology Corp. website). • Base Reaction Buffer: 20 mM Hepes (pH 7.5), 10 mM MgCl2, 1 mM EGTA, • 0.02% Brij35, 0.02 mg/mL BSA, 0.1 mM Na3VO4, 2 mM DTT, 1% DMSO; • Substrate: 20 μM of myelin basic protein (MBP) and 10 μM ATP; • Protein kinase: ASK1/MAP3K5. • Reaction Procedure: • 1. Prepare indicated substrate in freshly prepared Base Reaction Buffer. • 2. Deliver any required cofactors to the substrate solution. • 3. Deliver indicated kinase into the substrate solution and gently mix. • 4. Deliver compounds in DMSO into the kinase reaction mixture by Acoustic; technology (Echo550; nanoliter range), incubate for 20 minutes at room temperature. • 5. Deliver ^33P-ATP (specific activity 10 μCi/μL) into the reaction mixture to initiate the reaction. • 6. Incubate kinase reaction for 2 hours at room temperature. • 7. Reactions are spotted onto P81 ion exchange paper. • 8. Detect kinase activity by filter-binding method.

Row | pIC50 [1] | Kp uu at 4 h [2] | pIC50 [3] | SMILES
1 | ≥ 7.00 | < 0.1 | – | Cc1ccc(-c2cnc3c(c2)C(=O)Nc2cccc(n2)-c2nncn2[C@@H](C)CCCO3)cn1 [Compound 19, (S)-10-Methyl-5^5-(6-methylpyridin-3-yl)-1^4H-6-oxa-3-aza-2(2,6),5(3,2)-dipyridina-1(3,4)-triazolacyclodecaphan-4-one]
2 | ≥ 7.00 | – | ≥ 7.00 | C[C@H]1CCCOc2ncc(-c3cnn(CCN(C)C)c3)cc2C(=O)Nc2cccc(n2)-c2nncn21 [Compound 25, (S)-5^5-(1-(2-(Dimethylamino)ethyl)-1H-pyrazol-4-yl)-10-methyl-1^4H-6-oxa-3-aza-2(2,6),5(3,2)-dipyridina-1(3,4)-triazolacyclodecaphan-4-one]
3 | ≥ 7.00 | – | ≥ 7.00 | COc1ccc(-c2cnc3c(c2)C(=O)Nc2cccc(n2)-c2nncn2[C@@H](C)CCCO3)cn1 [Compound 20, (S)-5^5-(6-Methoxypyridin-3-yl)-10-methyl-1^4H-6-oxa-3-aza-2(2,6),5(3,2)-dipyridina-1(3,4)-triazolacyclodecaphan-4-one]

The next lines start with the molecule.

Row | SMILES | pIC50 [1] | Kp uu at 4 h [2] | pIC50 [3]
4 | C[C@H]1CCCOc2ncc(N3CCN(C)CC3)cc2C(=O)Nc2cccc(n2)-c2nncn21 [Compound 10, (S)-10-Methyl-5^5-(4-methylpiperazin-1-yl)-1^4H-6-oxa-3-aza-2(2,6),5(3,2)-dipyridina-1(3,4)-triazolacyclodecaphan-4-one] | ≥ 7.00 | < 0.1 | –
5 | C[C@H]1CCCOc2ncc(N3CC(F)(F)C3)cc2C(=O)Nc2cccc(n2)-c2nncn21 [Compound 9, (S)-5^5-(3,3-Difluoroazetidin-1-yl)-10-methyl-1^4H-6-oxa-3-aza-2(2,6),5(3,2)-dipyridina-1(3,4)-triazolacyclodecaphan-4-one] | ≥ 7.00 | – | ≥ 7.00
